Assay results published in ChEMBL document CHEMBL1156743, “Design, synthesis, and biological evaluations of 2,5-diaryl-2,3-dihydro-1,3,4-oxadiazoline analogs of combretastatin-A4” (J Med Chem, 2010).
Values after ≈ are worked out from the molar mass of the structure shown. Active and inactive are the calls of the source. The rule behind the calls is not given here.

How the values were obtained:
L1210 = test: Antiproliferative activity against mouse L1210 cells after 72 hrs by MTT assay; type: functional, cell-based; settings: L1210, 72 h
[1] = Relative aqueous solubility at pH 7.4 by filter plate assay; type: physicochemical; settings: buffer
MDA-MB-435 [2] = test: Ratio of EC50 for rat A10 cells to IC50 for human MDA-MB-435 cells; type: functional
A10 [3] = test: Antiproliferative activity against rat A10 cells assessed as microtubule depolymerization after 18 to 24 hrs by indirect immunofluorescence technique; type: functional, cell-based
MDA-MB-435 [4] = test: Antiproliferative activity against human MDA-MB-435 cells after 48 hrs by SRB assay; type: functional, cell-based; settings: MDA-MB-435, 48 h
[5] = Antiproliferative activity against mouse B16F0 cells after 72 hrs by MTT assay; type: functional
SK-OV-3 [6] = test: Antiproliferative activity against human SKOV3 cells expressing adenoviral MDR1 after 48 hrs by SRB assay; type: functional, cell-based; settings: SK-OV-3, 48 h
HeLa [7] = test: Antiproliferative activity against human HeLa cells expressing wild type beta3 tubulin after 48 hrs by SRB assay; type: functional, cell-based
HeLa [8] = test: Antimitotic activity in human HeLa cells assessed as gamma-tubulin containing centrosomes at 0.5 uM after 18 hrs by indirect immunofluorescence technique; type: functional, cell-based
HeLa [9] = test: Antimitotic activity in human HeLa cells assessed as multipolar mitotic spindles at 0.5 uM after 18 hrs by indirect immunofluorescence technique; type: functional, cell-based
A10 [10] = test: Antiproliferative activity against rat A10 cells assessed as microtubule depolymerization at 1 uM after 18 hrs by indirect immunofluorescence technique; type: functional, cell-based
SK-OV-3 [11] = test: Antiproliferative activity against human SKOV3 cells after 48 hrs by SRB assay; type: functional, cell-based; settings: SK-OV-3, 48 h
MDA-MB-435 [12] = test: Cell cycle arrest in human MDA-MB-435 cells assessed as accumulation at G2/M phase at 0.5 uM after 18 hrs by flow cytometry; type: functional, cell-based
HeLa [13] = test: Antimitotic activity in human HeLa cells assessed as effect on DNA at 0.5 uM after 18 hrs by indirect immunofluorescence technique; type: functional, cell-based
HeLa [14] = test: cells; settings: Homo sapiens, 48 h
Description: Antiproliferative activity against human HeLa cells after 48 hrs by SRB assay

Q: With `COc1ccc(OC)c(C2OC(c3cc(OC)c(OC)c(OC)c3)=NN2C(C)=O)c1` (stereo unspecified) as the molecule, how does the IC50 (L1210) read?
A: 55 µM

Q: With `COc1ccc(C2=NN(C(C)=O)C(c3cc(OC)cc(OC)c3)O2)cc1` (stereo unspecified) as the molecule, how does the solubility [1] read?
A: 94 µM (≈ 33.5 µg/mL)

Q: And the Ratio (MDA-MB-435 [2])?
A: 9.1

Q: What about the EC50 (A10 [3]) of the same molecule?
A: 1 µM

Q: What about the IC50 (L1210) of the same molecule?
A: 0.5 µM

Q: And the IC50 (MDA-MB-435 [4])?
A: 0.11 µM

Q: For `COc1ccc(C2=NN(C(C)=O)C(c3ccccc3)O2)cc1` (stereo unspecified), which IC50 (L1210) is on record?
A: > 100 µM

Q: Which solubility [1] does the source give for `COc1ccc(/C=C\c2cc(OC)c(OC)c(OC)c2)cc1O` [COMBRETASTATIN A4] here?
A: 350 µM (≈ 111 µg/mL)

Q: What about the Activity [5] of the same molecule?
A: 0.003 µM

Q: What about the EC50 (A10 [3]) of the same molecule?
A: 0.007 µM

Q: For `COc1ccc(C2=NN(C(C)=O)C(c3ccccc3OC)O2)cc1` (stereo unspecified), which IC50 (L1210) is on record?
A: 5.8 µM

Q: What does the source list for `COc1cc(C2=NN(C(C)=O)C(c3cccc(Br)c3)O2)cc(OC)c1OC` (stereo unspecified)?
A: solubility [1]: 66 µM (≈ 28.7 µg/mL); Ratio (MDA-MB-435 [2]): 10; EC50 (A10 [3]): 1.5 µM; IC50 (L1210): 0.6 µM; IC50 (MDA-MB-435 [4]): 0.15 µM

Q: For `COc1cccc(C2OC(c3cc(OC)c(OC)c(OC)c3)=NN2C(C)=O)c1` (stereo unspecified), which IC50 (L1210) is on record?
A: 45 µM

Q: For `COc1ccc(C2=NN(C(C)=O)C(c3cccc([N+](=O)[O-])c3)O2)cc1` (stereo unspecified), which IC50 (L1210) is on record?
A: 47 µM

Q: Which IC50 (L1210) does the source give for `COc1ccccc1C1OC(c2cc(OC)c(OC)c(OC)c2)=NN1C(C)=O` (stereo unspecified) here?
A: 48 µM

Q: With `COc1ccc(C2=NN(C(C)=O)C(c3ccc(OC)cc3)O2)cc1` (stereo unspecified) as the molecule, how does the IC50 (L1210) read?
A: > 100 µM

Q: With `COc1ccc(C2=NN(C(C)=O)C(c3ccc(OC)c([N+](=O)[O-])c3)O2)cc1` (stereo unspecified) as the molecule, how does the IC50 (L1210) read?
A: > 100 µM

Q: With `COc1ccc(C2OC(c3cc(OC)c(OC)c(OC)c3)=NN2C(C)=O)cc1` (stereo unspecified) as the molecule, how does the IC50 (L1210) read?
A: 57 µM

Q: Which IC50 (L1210) does the source give for `COc1ccc(C2OC(c3cc(OC)c(OC)c(OC)c3)=NN2C(C)=O)cc1[N+](=O)[O-]` (stereo unspecified) here?
A: 58 µM

Q: For `COc1cc(C2=NN(C(C)=O)C(c3ccccc3)O2)cc(OC)c1OC` (stereo unspecified), which IC50 (L1210) is on record?
A: 6.4 µM

Q: What does the source list for `COc1ccc(C2OC(c3cc(OC)c(OC)c(OC)c3)=NN2C(C)=O)cc1OC(C)=O` (stereo unspecified)?
A: solubility [1]: 112 µM (≈ 49.8 µg/mL); Ratio (MDA-MB-435 [2]): 3.1; EC50 (A10 [3]): 10.2 µM; IC50 (L1210): 3.9 µM; IC50 (MDA-MB-435 [4]): 3.3 µM

Q: With `COc1ccc(C2=NN(C(C)=O)C(c3cccc(Br)c3)O2)cc1` (stereo unspecified) as the molecule, how does the IC50 (L1210) read?
A: 37 µM

Q: For `COc1cc(C2=NN(C(C)=O)C(c3cc(OC)c(OC)c(OC)c3)O2)cc(OC)c1OC` (stereo unspecified), which IC50 (L1210) is on record?
A: > 100 µM

Q: With `COc1cc(C2=NN(C(C)=O)C(c3ccc([N+](=O)[O-])cc3)O2)cc(OC)c1OC` (stereo unspecified) as the molecule, how does the IC50 (L1210) read?
A: 4.2 µM

Q: For `COc1ccc(C2=NN(C(C)=O)C(c3cc(OC)ccc3OC)O2)cc1` (stereo unspecified), which solubility [1] is on record?
A: 259 µM (≈ 92.3 µg/mL)

Q: What about the Ratio (MDA-MB-435 [2]) of the same molecule?
A: 6.5

Q: What about the EC50 (A10 [3]) of the same molecule?
A: 1.3 µM

Q: And the IC50 (L1210)?
A: 0.5 µM

Q: What about the IC50 (MDA-MB-435 [4]) of the same molecule?
A: 0.2 µM

Q: What does the source list for `COc1ccc(C2=NN(C(C)=O)C(c3cc(OC)c(OC)c(OC)c3)O2)cc1` (stereo unspecified)?
A: solubility [1]: 257 µM (≈ 99.3 µg/mL); IC50 (SK-OV-3 [6]): 0.45 µM; IC50 (HeLa [7]): 0.27 µM; Activity (HeLa [8]): Active; Activity (HeLa [9]): Active; Activity (A10 [10]): Active; IC50 (SK-OV-3 [11]): 0.34 µM; Activity (MDA-MB-435 [12]): Active; Activity (HeLa [13]): Active; IC50 (HeLa [14]): 0.23 µM; Ratio (MDA-MB-435 [2]): 3.6; EC50 (A10 [3]): 0.5 µM; IC50 (L1210): 0.5 µM; IC50 (MDA-MB-435 [4]): 0.14 µM

Q: Which IC50 (L1210) does the source give for `COc1ccc(C2=NN(C(C)=O)C(c3ccc([N+](=O)[O-])cc3)O2)cc1` (stereo unspecified) here?
A: 68 µM

Q: With `COc1ccc(C2=NN(C(C)=O)C(c3cccc(OC)c3)O2)cc1` (stereo unspecified) as the molecule, how does the IC50 (L1210) read?
A: 41 µM

Q: With `COc1cc(C2=NN(C(C)=O)C(c3cccc([N+](=O)[O-])c3)O2)cc(OC)c1OC` (stereo unspecified) as the molecule, how does the IC50 (L1210) read?
A: 39 µM

Q: For `COc1ccc(C2=NN(C(C)=O)C(c3ccc(OC)c(OC(C)=O)c3)O2)cc1` (stereo unspecified), which IC50 (L1210) is on record?
A: > 100 µM

Q: With `COc1cc(OC)cc(C2OC(c3cc(OC)c(OC)c(OC)c3)=NN2C(C)=O)c1` (stereo unspecified) as the molecule, how does the IC50 (L1210) read?
A: 5.9 µM
